Test results as given in patent US20230139171A1 (SITA Information Networking Computing UK Limited, priority 2019, published 2023).

Assays:
Format in all cases: cell-based
human TLR8 = target: T1, human TLR8 (Homo sapiens, UniProt Q9NR97); assay: TLR8 inhibition reporter assay (HEK-Blue cells, SEAP reporter, R848 stimulation); details: HEK-Blue cells overexpressing human TLR8, SEAP reporter, R848 15.9 μM; read-out: TLR8 IC50
T1 construct: host or cells: HEK-Blue cells
T1 sequence (Q9NR97 27-1041): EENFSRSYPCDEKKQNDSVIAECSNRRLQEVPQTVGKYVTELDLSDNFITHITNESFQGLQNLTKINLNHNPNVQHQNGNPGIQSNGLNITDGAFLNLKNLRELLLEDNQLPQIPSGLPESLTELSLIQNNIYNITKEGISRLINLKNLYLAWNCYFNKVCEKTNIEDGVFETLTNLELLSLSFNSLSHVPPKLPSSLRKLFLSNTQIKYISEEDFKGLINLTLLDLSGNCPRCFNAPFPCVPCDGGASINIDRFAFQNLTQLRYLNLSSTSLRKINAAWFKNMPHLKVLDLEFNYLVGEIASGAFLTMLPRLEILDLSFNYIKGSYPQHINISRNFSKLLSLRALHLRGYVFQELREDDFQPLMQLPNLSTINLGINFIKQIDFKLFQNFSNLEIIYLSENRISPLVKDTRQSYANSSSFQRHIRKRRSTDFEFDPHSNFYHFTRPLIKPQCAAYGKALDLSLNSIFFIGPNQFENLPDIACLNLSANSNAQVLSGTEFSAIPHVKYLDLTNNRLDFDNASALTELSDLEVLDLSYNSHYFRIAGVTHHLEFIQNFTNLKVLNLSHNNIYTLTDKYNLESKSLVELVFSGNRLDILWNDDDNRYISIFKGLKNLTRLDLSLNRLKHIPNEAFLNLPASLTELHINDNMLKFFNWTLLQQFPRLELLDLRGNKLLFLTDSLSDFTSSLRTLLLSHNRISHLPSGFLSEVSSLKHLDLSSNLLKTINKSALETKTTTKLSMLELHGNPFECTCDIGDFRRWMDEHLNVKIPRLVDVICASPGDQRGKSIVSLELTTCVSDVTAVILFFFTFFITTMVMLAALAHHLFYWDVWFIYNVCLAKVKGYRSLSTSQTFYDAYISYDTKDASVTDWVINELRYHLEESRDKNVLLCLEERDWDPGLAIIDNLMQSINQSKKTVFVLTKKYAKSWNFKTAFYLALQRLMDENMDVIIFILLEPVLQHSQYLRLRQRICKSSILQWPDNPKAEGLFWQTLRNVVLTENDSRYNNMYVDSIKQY
Outline: (§1)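 Dose–response from 0.05 nM to 50 μM was run in HEK-Blue human TLR7, TLR8 and TLR9 reporter cells. After 30 min at room temperature with compound, ligand was added (TLR7 gardiquimod 7.5 μM; TLR8 R848 15.9 μM; TLR9 ODN2006 5 nM) and SEAP measured next day, at 22 h.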

human TLR7 = target: T2, human TLR7 (Homo sapiens, UniProt Q9NYK1); assay: TLR7 inhibition reporter assay (HEK-Blue cells, SEAP reporter, gardiquimod stimulation); details: HEK-Blue cells overexpressing human TLR7, SEAP reporter, gardiquimod 7.5 μM; read-out: TLR7 IC50
T2 construct: host or cells: HEK-Blue cells
T2 sequence (Q9NYK1 27-1049): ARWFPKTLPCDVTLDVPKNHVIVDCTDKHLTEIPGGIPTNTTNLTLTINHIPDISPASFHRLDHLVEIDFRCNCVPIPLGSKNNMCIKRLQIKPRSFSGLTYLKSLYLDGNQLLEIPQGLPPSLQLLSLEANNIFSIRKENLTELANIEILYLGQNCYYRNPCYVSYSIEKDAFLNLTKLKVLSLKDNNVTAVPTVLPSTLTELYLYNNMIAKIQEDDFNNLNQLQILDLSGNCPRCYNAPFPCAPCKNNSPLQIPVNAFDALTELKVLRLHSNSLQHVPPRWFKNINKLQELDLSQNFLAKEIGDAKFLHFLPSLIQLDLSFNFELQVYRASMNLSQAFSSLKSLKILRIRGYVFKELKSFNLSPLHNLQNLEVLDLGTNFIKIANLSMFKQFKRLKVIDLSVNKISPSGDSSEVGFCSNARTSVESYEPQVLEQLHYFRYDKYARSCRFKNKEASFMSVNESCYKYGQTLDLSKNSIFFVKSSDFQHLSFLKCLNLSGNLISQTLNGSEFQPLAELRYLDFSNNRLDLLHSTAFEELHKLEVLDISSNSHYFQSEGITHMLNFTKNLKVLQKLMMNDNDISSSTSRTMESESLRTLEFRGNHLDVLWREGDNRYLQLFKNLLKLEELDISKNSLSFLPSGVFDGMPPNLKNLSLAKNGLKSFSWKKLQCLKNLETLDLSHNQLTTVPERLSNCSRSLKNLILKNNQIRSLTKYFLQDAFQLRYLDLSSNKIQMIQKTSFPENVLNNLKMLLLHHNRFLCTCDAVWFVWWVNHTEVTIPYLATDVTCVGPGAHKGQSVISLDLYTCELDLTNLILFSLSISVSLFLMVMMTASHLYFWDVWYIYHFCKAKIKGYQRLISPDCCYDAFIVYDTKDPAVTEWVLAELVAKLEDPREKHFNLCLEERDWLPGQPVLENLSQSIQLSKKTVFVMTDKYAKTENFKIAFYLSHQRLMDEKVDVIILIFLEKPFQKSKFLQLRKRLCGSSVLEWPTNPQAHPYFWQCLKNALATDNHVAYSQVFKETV
Outline: as §1

human TLR9 = target: T3, human TLR9 (Homo sapiens, UniProt Q9NR96); assay: TLR9 inhibition reporter assay (HEK-Blue cells, SEAP reporter, ODN2006 stimulation); details: HEK-Blue cells overexpressing human TLR9, SEAP reporter, ODN2006 5 nM
T3 construct: host or cells: HEK-Blue cells
T3 sequence (Q9NR96 26-1032): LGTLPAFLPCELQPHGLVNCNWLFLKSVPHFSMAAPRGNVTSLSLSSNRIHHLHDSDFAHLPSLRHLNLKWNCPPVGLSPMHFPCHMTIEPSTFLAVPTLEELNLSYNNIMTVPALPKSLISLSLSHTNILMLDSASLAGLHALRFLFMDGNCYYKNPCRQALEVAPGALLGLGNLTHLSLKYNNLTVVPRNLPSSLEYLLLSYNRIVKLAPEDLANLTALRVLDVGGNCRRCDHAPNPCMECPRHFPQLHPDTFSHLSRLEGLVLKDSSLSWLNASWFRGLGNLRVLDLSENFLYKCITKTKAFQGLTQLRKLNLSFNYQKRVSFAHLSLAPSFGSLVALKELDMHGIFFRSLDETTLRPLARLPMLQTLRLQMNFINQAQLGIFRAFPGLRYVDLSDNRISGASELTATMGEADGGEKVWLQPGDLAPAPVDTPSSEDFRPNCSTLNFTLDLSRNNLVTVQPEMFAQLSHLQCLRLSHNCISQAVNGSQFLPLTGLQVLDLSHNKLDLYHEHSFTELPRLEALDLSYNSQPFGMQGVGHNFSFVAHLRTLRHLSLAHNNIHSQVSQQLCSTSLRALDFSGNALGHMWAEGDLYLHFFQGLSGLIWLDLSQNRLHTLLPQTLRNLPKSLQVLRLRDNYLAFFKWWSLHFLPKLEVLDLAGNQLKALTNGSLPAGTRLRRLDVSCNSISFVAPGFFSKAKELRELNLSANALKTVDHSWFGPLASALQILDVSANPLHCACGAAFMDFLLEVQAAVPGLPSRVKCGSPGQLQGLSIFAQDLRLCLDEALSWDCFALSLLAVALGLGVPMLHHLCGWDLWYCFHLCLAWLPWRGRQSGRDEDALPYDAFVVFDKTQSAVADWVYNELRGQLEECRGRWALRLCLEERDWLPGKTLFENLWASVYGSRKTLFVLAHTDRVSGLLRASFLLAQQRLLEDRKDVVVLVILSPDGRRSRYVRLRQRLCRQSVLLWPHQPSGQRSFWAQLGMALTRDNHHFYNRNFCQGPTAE
Outline: as §1

| SMILES | IC50 (human TLR8) [µM] | IC50 (human TLR7) [µM] | IC50 (human TLR9) [µM] |
| --- | --- | --- | --- |
| Cc1cc(-c2[nH]c3sc(C(=O)N4CCC(N(C)C)CC4)nc3c2C(C)C)cn2ncnc12 [Example 395, (4-(dimethylamino)piperidin-1-yl)(6-isopropyl-5-(8-methyl-[1,2,4]triazolo[1,5-a]pyridin-6-yl)-4H-pyrrolo[3,2-d]thiazol-2-yl)methanone] | 0.00675 | 0.00789 | 4.5 |
| Cc1cc(-c2[nH]c3sc(C(=O)NCCN(C)C)nc3c2C(C)C)cn2ncnc12 [Example 400, N-(2-(dimethylamino)ethyl)-6-isopropyl-5-(8-methyl-[1,2,4]triazolo[1,5-a]pyridin-6-yl)-4H-pyrrolo[3,2-d]thiazole-2-carboxamide] | 0.0159 | 0.0135 | 9.25 |
| Cc1c(-c2[nH]c3sc(CNC4CCN(C(C)C)CC4)nc3c2C(C)C)cn2ncnc2c1C [Example 401, N-((5-(7,8-dimethyl-[1,2,4]triazolo[1,5-a]pyridin-6-yl)-6-isopropyl-4H-pyrrolo[3,2-d]thiazol-2-yl)methyl)-1-isopropylpiperidin-4-amine] | 0.0357 | 0.0369 | 13.5 |
| Cc1c(-c2[nH]c3sc(CNCC4(S(C)(=O)=O)CC4)nc3c2C(C)C)cn2ncnc2c1C [Example 405, 1-(5-(7,8-dimethyl-[1,2,4]triazolo[1,5-a]pyridin-6-yl)-6-isopropyl-4H-pyrrolo[3,2-d]thiazol-2-yl)-N-((1-(methylsulfonyl)cyclopropyl)methyl)methanamine] | 0.215 | 0.0775 | 37.7 |
| Cc1c(-c2[nH]c3sc(CN4CC5(CNC5)C4)nc3c2C(C)C)cn2ncnc2c1C [Example 409, 2-((2,6-diazaspiro[3.3]heptan-2-yl)methyl)-5-(7,8-dimethyl-[1,2,4]triazolo[1,5-a]pyridin-6-yl)-6-isopropyl-4H-pyrrolo[3,2-d]thiazole] | 0.345 | 0.0482 | 9.8 |
| COc1cc(-c2[nH]c3nc(C4CCNCC4)sc3c2C(C)C)cn2ncnc12 [Example 410, 6-isopropyl-5-(8-methoxy-[1,2, 4]triazolo[1,5-a]pyridin-6-yl)-2-(piperidin-4-yl)-4H-pyrrolo[2,3-d]thiazole] | 0.56 | 0.13 | 6.8 |
| Cc1cc(-c2[nH]c3nc(C4CCNCC4)sc3c2C(C)C)cn2ncnc12 [Example 411, 6-isopropyl-5-(8-methyl-[1,2,4]triazolo[1,5-a]pyridin-6-yl)-2-(piperidin-4-yl)-4H-pyrrolo[2,3-d]thiazole] | 0.2 | 0.0018 | 3.1 |
| Cc1cc(-c2[nH]c3nc(C4CCN(CC5(C)COC5)CC4)sc3c2C(C)C)cn2ncnc12 [Example 412, 6-isopropyl-5-(8-methyl-[1,2,4]triazolo[1,5-a]pyridin-6-yl)-2-(1-((3-methyloxetan-3-yl)methyl)piperidin-4-yl)-4H-pyrrolo[2,3-d]thiazole] | 0.52 | 0.05 | 5 |
| COc1cc(-c2[nH]c3cc(C4CCNCC4)sc3c2C(C)C)cn2ncnc12 [Example 413, 6-isopropyl-5-(8-methoxy-[1,2,4]triazolo[1,5-a]pyridin-6-yl)-2-(piperidin-4-yl)-4H-thieno[3,2-b]pyrrole] | 0.0093 | 0.0053 | 3.1 |
